Patent US11427567B2, “Imidazolyl pyrimidinylamine compounds as CDK2 inhibitors” (Incyte Corporation, priority 2019, dated 2022)

molecular target: CDK2/Cyclin E1 (Homo sapiens (Human), UniProt P24941); assay: CDK2/Cyclin E1 HTRF enzyme activity assay (Example A); assay type: biochemical; conditions: 1 mM ATP
Description: Assays were conducted in white 384-well polystyrene plates in a final reaction volume of 8 μL. […] HTRF signals were read after 1 hour at room temperature on a PHERAstar FS plate reader (BMG Labtech). Data was analyzed with IDBS XLFit and GraphPad Prism 5.0 software using a three or four parameter dose response curve to determine IC50 for each compound.

IC50, ≤ 50 nM:
CS(=O)(=O)N1CCC(Nc2ncc(C(F)(F)F)c(-c3cn(-c4cccc(CCN5CCOCC5)c4Cl)cn3)n2)CC1 [Example 369, 4-(1-(2-Chloro-3-(2-morpholinoethyl)phenyl)-1H-imidazol-4-yl)-N-(1-(methylsulfonyl)piperidin-4-yl)-5-(trifluoromethyl)pyrimidin-2-amine]
Cc1ncn(C)c1-c1ccc(-n2cnc(-c3nc(NC4CCN(S(C)(=O)=O)CC4)ncc3C(F)(F)F)c2)c(Cl)c1 [Example 123, 4-(1-(2-Chloro-4-(1,4-dimethyl-1H-imidazol-5-yl)phenyl)-1H-imidazol-4-yl)-N-(1-(methylsulfonyl)-piperidin-4-yl)-5-(trifluoromethyl)-pyrimidin-2-amine]
Cc1cc(CN(C)C)ccc1-n1cnc(-c2nc(NC3CCN(S(C)(=O)=O)CC3)ncc2C(F)(F)F)c1 [Example 271, 4-(1-(4-((Dimethylamino)methyl)-2-methylphenyl)-1H-imidazol-4-yl)-N-(1-(methylsulfonyl)piperidin-4-yl)-5-(trifluoromethyl)pyrimidin-2-amine]
COc1nccc(-n2cnc(-c3nc(NC4CCN(S(C)(=O)=O)CC4)ncc3C(F)(F)F)c2)c1C [Example 312, 4-(1-(2-Methoxy-3-methylpyridin-4-yl)-1H-imidazol-4-yl)-N-(1-(methylsulfonyl)piperidin-4-yl)-5-(trifluoromethyl)pyrimidin-2-amine]
CCN1CCN(c2nccc(-n3cnc(-c4nc(NC5CCN(S(C)(=O)=O)CC5)ncc4C(F)(F)F)c3)c2Cl)CC1 [Example 318, 4-(1-(3-Chloro-2-(4-ethylpiperazin-1-yl)pyridin-4-yl)-1H-imidazol-4-yl)-N-(1-(methylsulfonyl)piperidin-4-yl)-5-(trifluoromethyl)pyrimidin-2-amine]
CS(=O)(=O)N1CCC(Nc2ncc(C(F)(F)F)c(-c3cn(-c4ccc(CNCC5CC5)cc4Cl)cn3)n2)CC1 [Example 191, 4-(1-(2-Chloro-4-(((cyclopropylmethyl)-amino)methyl)phenyl)-1H-imidazol-4-yl)-N-(1-(methylsulfonyl)-piperidin-4-yl)-5-(trifluoromethyl)-pyrimidin-2-amine]
CN(C)CCc1ccc(-n2cnc(-c3nc(NC4CCN(S(C)(=O)=O)CC4)ncc3C(F)(F)F)c2)c(Cl)c1 [Example 157, 4-(1-(2-Chloro-4-(2-(dimethylamino)ethyl)phenyl)-1H-imidazol-4-yl)-N-(1-(methylsulfonyl)piperidin-4-yl)-5-(trifluoromethyl)pyrimidin-2-amine]
C[C@@H]1CN(S(C)(=O)=O)CC[C@@H]1Nc1ncc(C(F)(F)F)c(-c2cn(-c3ccc(CN(C)C)cc3Cl)cn2)n1 [Example 220, 4-(1-(2-Chloro-4-((dimethylamino)-methyl)phenyl)-1H-imidazol-4-yl)-N-((3R,4S)-3-methyl-1-(methylsulfonyl)-piperidin-4-yl)-5-(trifluoromethyl)-pyrimidin-2-amine]
CS(=O)(=O)N1CCC(Nc2ncc(C(F)(F)F)c(-c3cn(-c4cccc5c4COC5=O)cn3)n2)CC1 [Example 233, 4-(4-(2-((1-(Methylsulfonyl)piperidin-4-yl)amino)-5-(trifluoromethyl)pyrimidin-4-yl)-1H-imidazol-1-yl)isobenzofuran-1(3H)-one]
CS(=O)(=O)N1CCC(Nc2ncc(C(F)(F)F)c(-c3cn(-c4ccccc4Br)cn3)n2)CC1 [Example 442, 4-(1-(2-Bromophenyl)-1H-imidazol-4-yl)-N-(1-(methylsulfonyl)piperidin-4-yl)-5-(trifluoromethyl)pyrimidin-2-amine]
CN(C)Cc1ccc(-n2cnc(-c3nc(NC4CCN(S(C)(=O)=O)CC4)ncc3C(F)(F)F)c2)c(F)c1 [Example 267, 4-(1-(4-((Dimethylamino)methyl)-2-fluorophenyl)-1H-imidazol-4-yl)-N-(1-(methylsulfonyl)piperidin-4-yl)-5-(trifluoromethyl)pyrimidin-2-amine]
